Paper PMC11472310, “Distinctive Immune Signatures Driven by Structural Alterations in Desmuramylpeptide NOD2 Agonists” (Journal of Medicinal Chemistry, 2024)
Read-outs that look alike come from different tables or passages of the source.

What was measured:
PBMCs = assay: Direct cytotoxic effect of compounds on PBMCs (Sytox blue); type: cell-based; conditions: Table S2; for Percent of dead PBMCs, + LPS: 10 μM + LPS 1 μg/mL; for Percent of dead PBMCs: alone: compounds 10 μM, LPS 1 μg/mL, IL-2 200 U/mL
Procedure: Additionally, PBMCs and cancer cells alone were treated with desmuramylpeptides to assess any direct cytotoxic effects on these cells.
(§1) The PBMC cytotoxicity assays utilizing K562 cells were conducted following previously established methods, with some adjustments.[82] […] Meanwhile, K562 cells were stained with CFSE (Invitrogen, Carlsbad, CA, USA), washed twice with complete medium, and then added (1 × 10^4 cells per well) to the pretreated PBMCs to achieve a final effector cell to target tumor cell ratio of 40:1. Following a 4-h coincubation period at 37 °C with 5% CO2, cells were stained with Sytox blue dead cell stain (Invitrogen) and analyzed using an Attune NxT flow cytometer (Thermo Fisher Scientific, Waltham, MA, USA) along with FlowJo software (Tree Star, Inc., Ashland, OR, USA). Cells positive for both CFSE and Sytox blue were designated as dead K562 cells. PBMCs alone and CFSE-labeled cancer cells alone were also exposed to the compounds at equivalent concentrations and stained with Sytox blue to assess any direct cytotoxic effects of the compounds on PBMCs and cancer cells separately. Each experiment was conducted in duplicate and repeated in three independent biological replicates. Statistical analysis was performed using one-way ANOVA followed by Dunnett’s multiple comparisons test.

hNOD2 = molecular target: T1, hNOD2 (Homo sapiens, UniProt Q9HC29); assay: HEK-Blue NOD2 cell line reporter assay (NF-κB-inducible SEAP); type: cell-based
T1 construct: host or cells: HEK-Blue NOD2 cells (HEK293)
T1 sequence (Q9HC29 whole entry): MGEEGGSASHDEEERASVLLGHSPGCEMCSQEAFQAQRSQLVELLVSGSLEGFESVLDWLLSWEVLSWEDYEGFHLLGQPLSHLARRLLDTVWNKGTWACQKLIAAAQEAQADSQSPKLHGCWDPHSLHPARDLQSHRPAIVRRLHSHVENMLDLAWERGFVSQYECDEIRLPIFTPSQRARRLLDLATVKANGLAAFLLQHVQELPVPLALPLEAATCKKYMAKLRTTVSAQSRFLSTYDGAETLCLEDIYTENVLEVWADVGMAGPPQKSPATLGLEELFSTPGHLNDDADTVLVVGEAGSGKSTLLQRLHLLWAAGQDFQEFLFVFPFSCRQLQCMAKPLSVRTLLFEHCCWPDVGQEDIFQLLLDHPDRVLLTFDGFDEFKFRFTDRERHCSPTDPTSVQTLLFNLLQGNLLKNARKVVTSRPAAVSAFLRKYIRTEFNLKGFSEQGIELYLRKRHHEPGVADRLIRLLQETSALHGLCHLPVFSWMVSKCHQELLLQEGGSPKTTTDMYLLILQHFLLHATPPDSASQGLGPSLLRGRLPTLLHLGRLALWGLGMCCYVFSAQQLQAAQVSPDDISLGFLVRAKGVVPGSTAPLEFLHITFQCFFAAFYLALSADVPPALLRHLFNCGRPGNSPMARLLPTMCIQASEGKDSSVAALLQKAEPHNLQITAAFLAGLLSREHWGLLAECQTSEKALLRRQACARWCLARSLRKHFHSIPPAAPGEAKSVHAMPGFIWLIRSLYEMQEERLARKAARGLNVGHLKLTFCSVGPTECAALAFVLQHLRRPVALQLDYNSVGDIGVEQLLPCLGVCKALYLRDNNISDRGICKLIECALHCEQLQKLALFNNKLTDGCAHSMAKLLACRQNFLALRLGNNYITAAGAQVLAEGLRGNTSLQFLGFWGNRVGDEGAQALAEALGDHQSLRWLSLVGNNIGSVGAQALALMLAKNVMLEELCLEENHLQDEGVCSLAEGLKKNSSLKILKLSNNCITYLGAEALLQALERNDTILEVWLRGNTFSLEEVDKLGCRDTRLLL
Procedure: To assess the NOD2 agonistic potential of the synthesized desmuramylpeptides at a cellular level, we employed the HEK-Blue NOD2 cell line reporter assay, a validated and commercially available method. All synthesized compounds were evaluated for their dose-dependent activities to establish their EC50 values.
The HEK-Blue NOD1 and NOD2 cell line reporter assay was generated from HEK293 cells through cotransfection of the hNOD1 or hNOD2 gene, respectively, along with an NF-κB-inducible secreted embryonic alkaline phosphatase (SEAP) reporter gene. Upon activation of NOD1 or NOD2, NF-κB triggers the production of SEAP, which can be quantitatively measured colorimetrically. […] After 18 h of incubation at 37 °C with 5% CO2, SEAP activity was measured spectrophotometrically by absorbance at 630 nm (BioTek Synergy microplate reader; Winooski, VT, USA). EC50 values were determined using Prism software (version 9; GraphPad Software, CA, USA). Each experiment was conducted in duplicate and repeated in at least two independent biological replicates.

K562 cancer cells = assay: PBMC cytotoxicity against K562 cancer cells (flow cytometry); type: cell-based; conditions: for cytotoxicity of PBMCs against K562 cells, cotreatment with LPS (relative to negative control) / Cytotoxicity (ratio to control), + LPS: 10 μM + LPS 1 μg/mL; for cytotoxicity of PBMCs against K562 cells, cotreatment with LPS (relative to negative control) / enhancement of cytotoxicity of PBMCs against K562 cells (relative to negative control): 18 h, then 4 h coincubation; for cytotoxicity of PBMCs against K562 cells, cotreatment with LPS (relative to negative control): 40:1; for Cytotoxicity (ratio to control), + LPS / Cytotoxicity (ratio to control): Table S2; for Cytotoxicity (ratio to control) / enhancement of cytotoxicity of PBMCs against K562 cells (relative to negative control): alone: compounds 10 μM, LPS 1 μg/mL, IL-2 200 U/mL; for enhancement of cytotoxicity of PBMCs against K562 cells (relative to negative control): effector:target 40:1
Procedure: In this study, we investigated the potential of desmuramylpeptides, both alone and in combination with LPS, to enhance the cytotoxic activity of PBMCs against cancer cells employing a flow-cytometry-based cytotoxicity assay based on coincubation of preactivated PBMCs with fluorescently labeled K562 cancer cells.[82] Among the diverse subpopulations within PBMCs, natural killer (NK) cells play a pivotal role in detecting and eliminating cancer cells. NOD2-mediated NK cell activity against cancer cells arises from both direct NOD2 agonist elicited cytolytic activity of NK cells[83] and indirect activation through cytokine release by other NOD2-responsive cells, such as monocytes, which comprise approximately 10% of PBMCs; such interactions potentially reinforce the immune response.[84] […] To that end, we utilized the entire PBMC population as effector cells rather than isolated NK cells, to mimic conditions more closely resembling the in vivo environment while K562 chronic myelogenous leukemia cells were used as the target cells in a 40:1 effector to target cell ratio.[87]
as §1

[1] = Kinetic solubility (method of Hoelke et al.); type: physicochemical
Text: Park et al. have shown that the degree of saturation of fatty acids exerts a profound impact on permeability of fatty acylated peptides—a higher degree of unsaturation results in higher permeability.[43] PUFA can also induce significant biophysical perturbations upon incorporation into membrane phospholipids.[67],[68] […] Given that the hydrophobicity of fatty acyl residues in general reduces as the number of unsaturated sites increases,[69],[70] we decided to ascertain how such structural modifications translate to the kinetic solubility of the molecule as a whole. […] The acylation with PUFA thus provides an elegant, albeit counterintuitive, approach, by which permeability of the molecule as a whole as well as its capacity for liposomal encapsulation can be enhanced without completely abolishing its aqueous solubility.

human PBMCs = assay: Cytokine release from peripheral blood mononuclear cells (LEGENDplex panel); type: cell-based; conditions: 18 h
Text: The immunomodulatory effects of the selected desmuramylpeptides were examined in human primary peripheral blood mononuclear cells (PBMCs). This diverse mixture of immune cells provided a platform to investigate the effects of these NOD2 agonists within a physiologically relevant environment, encompassing other NOD2-interacting and downstream signaling proteins. […] Given that NOD2 activation often modulates the Toll-like receptor (TLR)-induced cytokine responses, we investigated the impact of combining desmuramylpeptides with lipopolysaccharide (LPS), a well-known TLR4 agonist, on cytokine secretion.[76]−[78]
The elicited cytokine profiles thus broadly reflect the structure–activity relationships obtained in the reporter gene assays.
Peripheral blood mononuclear cells were plated at a density of 1 × 10^6 cells/mL in 48-well plates containing 500 μL of growth medium. Cells were then treated with the compounds (2 μM) or the corresponding vehicle (0.1% DMSO), both in the absence and presence of LPS (10 ng/mL). Following an 18 h incubation period at 37 °C with 5% CO2, cell-free supernatants were collected and stored at −80 °C until analysis. […] Standard curves were constructed using recombinant cytokines provided in the kit. Data analysis was performed using Biolegend software Qognit and Prism (GraphPad, San Diego, CA, USA) software. The experiments were independently replicated four times. Statistical significance was determined using two-way analysis of variance (ANOVA) followed by Tukey’s multiple comparisons test.

BMDC/T-cell cocultures = assay: T cell cytokine release in BMDC/T-cell cocultures; type: cell-based, C57BL/6 mouse; conditions: 10 μM, 72 h coculture
Procedure: (§2) For this study, we narrowed down the selection of suitable desmuramylpeptides even further. In order to assess the adjuvant potential of selected desmuramylpeptides with regard to their effect on DC-mediated activation of CD4^+ and CD8^+ T cells, we conducted an ex vivo antigen-presentation assay utilizing C57BL/6 mouse bone marrow-derived DCs (BMDCs). Upon stimulation with desmuramylpeptides at 10 μM, in conjunction with ovalbumin soluble protein (50 μg/mL), BMDCs were cocultured with carboxyfluorescein succinimidyl ester (CFSE)-labeled naïve ovalbumin-specific CD4^+ or CD8^+ T cells, which were isolated from splenocytes of OT II and OT I transgenic mice, respectively. […] Additionally, we investigated how the priming of T cells elicited by the tested compounds impacted the cytokine profiles secreted in BMDC/T-cell cocultures.
Following 72 h of coincubation with BMDCs (pretreated with desmuramylpeptides [10 μM] and washed), supernatants from CD4^+ and CD8^+ T cells were harvested as previously described. […] Standard curves were constructed using recombinant cytokines provided in the kit. Data analysis was conducted using FlowJo (Tree Star, Inc., Ashland, OR, USA) and Prism (GraphPad, San Diego, CA, USA) software. Each experiment was performed in duplicate and replicated in two independent biological runs.

[2] = tested on: CD4+ T cells cocultured with BMDCs; assay: BMDC antigen presentation to ovalbumin-specific CD4+ T cells (OT II); type: cell-based, C57BL/6 mouse; conditions: BMDCs pretreated 10 μM + ovalbumin 50 μg/mL 18 h, coculture 72 h; OVA-treated cells 63.8%
Procedure: as §2
CD4^+ and CD8^+ T cells were isolated from splenocytes of OT II and OT I transgenic mice using CD4^+ and CD8^+ T cell isolation kits (Miltenyi Biotec, Germany) following the manufacturer’s instructions. The purified T cells were labeled with CFSE (Invitrogen, Carlsbad, CA, USA) and subsequently washed. Next, 5 × 10^4 T cells were combined with 1 × 10^4 BMDCs/well (pretreated with desmuramylpeptides at 10 μM and 50 μg/mL ovalbumin [Invivogen, San Diego, CA, USA] for 18 h and then washed). Following a 72-h incubation period at 37 °C with 5% CO2, supernatants were harvested and stored at −80 °C for cytokine analysis. The cells were then stained with Fixable viability dye eFluor 780 (eBioscience, Thermo Fisher Scientific, MA, USA), anti-Thy1.2-PE-Cy7 antibodies (Biolegend, San Diego, CA, USA), anti-CD8-eFluor450 antibodies (eBioscience), anti-CD4-eFluor450 antibodies (eBioscience), and anti-CD25-APC antibodies (Biolegend) before analysis using a Beckman Coulter Cytoflex S flow cytometer (CA, USA) and FlowJo software (Tree Star, Inc., Ashland, OR, USA). Live Thy1.2+/CD4+ and Thy1.2+/CD8+ cells were assessed for CFSE dilution and CD25 expression. Each experiment was performed in duplicate and repeated in two independent biological replicates. Statistical significance was determined using paired t tests.

[3] = HEK-Blue NOD2 cells, 18 h, NF-κB transcriptional activity (SEAP), read-out: EC50 (nM), NOD2 agonistic activity

Compound	Percent of dead PBMCs, + LPS (PBMCs)	Percent of dead PBMCs (PBMCs)	boost of NOD2 agonist activity on incorporation into SLN/NLC (hNOD2; 2-loaded SLNs and NLCs versus free 2) [factor]	EC50 (hNOD2; HEK-Blue NOD2 cell line, SLN and NLC formulations by melt-emulsification) [nM]	EC50 (hNOD2; [3]) [nM]	cytotoxicity of PBMCs against K562 cells, cotreatment with LPS (relative to negative control) (K562 cancer cells) [fold]	Cytotoxicity (ratio to control), + LPS (K562 cancer cells)	Cytotoxicity (ratio to control) (K562 cancer cells)	enhancement of cytotoxicity of PBMCs against K562 cells (relative to negative control) (K562 cancer cells)	Kinetic solubility [1]	levels of LPS-induced IL-10 (human PBMCs; 2 μM + LPS 10 ng/mL)	production of MCP-1 and IFN-γ compared to the MDP/LPS combination (human PBMCs; 2 μM + LPS 10 ng/mL)	secretion of IL-1β, IL-10 and TGFβ compared to the MDP/LPS combination (human PBMCs; 2 μM + LPS 10 ng/mL)	levels of IL-6 and TNF-α secreted by CD4+ T cells (BMDC/T-cell cocultures)	fraction of activated and proliferating CD4+ T-cells (CD25+, CFSE low) [2] [%]	amounts of IL-1β, IL-6, IL-10, TNF-α and IFN-γ compared to the MDP/LPS combination (human PBMCs; 2 μM + LPS 10 ng/mL)	levels of secreted MCP-1 compared to the MDP/LPS combination (human PBMCs; 2 μM + LPS 10 ng/mL)	production of proinflammatory cytokines and chemokines including IL-6, IL-8 and MCP-1 (human PBMCs; 2 μM alone (no LPS))
CCCCCCCCCCCC(=O)Oc1ccc(/C=C/C(=O)NCC(=O)N[C@H](C(=O)N[C@H](CCC(=O)OCC)C(=O)OCC)C(C)C)cc1OC [Compound 2]	8.07% ± 0.47%	0.96% ± 0.14%	5	10.5	9.9 ± 0.69	1.54	1.54 ± 0.08	1.00 ± 0.05	no activity	insoluble	amplified	significantly diminished production	increased secretion					
CCOC(=O)[C@@H](CCC(=O)NC12C[C@H]3C[C@@H](C1)C[C@@H](C2)C3)NC(=O)[C@@H](NC(=O)CNC(=O)/C=C/c1ccc(O)c(OC)c1)C(C)C [Compound 28, Ethyl N^5-((3S,5S,7S)-Adamantan-1-yl)-N^2-((E)-3-(4-hydroxy-3-methoxyphenyl)acryloyl)glycyl-L-valyl-D-glutaminate]	10.44% ± 0.63%	0.99% ± 0.21%			> 10000	2.19	2.19 ± 0.07	0.91 ± 0.02	devoid of the capacity to induce cytotoxicity		opposite			slightly increased	67.0	lesser amounts	on par	smaller increases
